# Measurements as given in patent US9738634B2, “Heterocyclic amide compound and herbicide” (SYNGENTA PARTICIPATIONS AG, priority 2013, dated 2017).
# Tests used:
# Type in all cases: in vivo
# [1] = test system: barnyard grass; experiment: Test Example 1: weedkilling efficacy, preemergent weed treatment in the submerged state; A: barnyard grass; settings: treatment dosage 320 g/ha
# Summary of the method: (§1)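 Pots of alluvial soil flooded 4 cm deep, sown with barnyard grass, bulrush and oval-leafed pondweed and transplanted with 2.5-leaf rice. Emulsified compound applied to the water surface on sowing day at stated g/ha; greenhouse 25–30 °C, effects assessed 3 weeks after treatment.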
# [2] = test system: bulrush; experiment: Test Example 1: weedkilling efficacy, preemergent weed treatment in the submerged state; B: bulrush; settings: treatment dosage 320 g/ha
# Summary of the method: as §1
# [3] = test system: oval-leafed pondweed; experiment: Test Example 1: weedkilling efficacy, preemergent weed treatment in the submerged state; C: oval-leafed pondweed; settings: treatment dosage 320 g/ha
# Summary of the method: as §1
# [4] = test system: transplanted rice; experiment: Test Example 1: preemergent weed treatment in the submerged state, effect on crop; a: transplanted rice; settings: treatment dosage 320 g/ha
# Summary of the method: as §1
# [5] = test system: barnyard grass; experiment: Test Example 2: weedkilling efficacy, growth period weed treatment in the submerged state; A: barnyard grass; settings: treatment dosage 320 g/ha
# Summary of the method: (§2)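 Barnyard grass, bulrush and oval-leafed pondweed sown in alluvial soil under 4 cm flooding, greenhouse 25 to 30° C. At 1-2 leaf stage, water-diluted emulsion applied to the water surface at stated g/ha dosages; effects scored 3 weeks later.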
# [6] = test system: bulrush; experiment: Test Example 2: weedkilling efficacy, growth period weed treatment in the submerged state; B: bulrush; settings: treatment dosage 320 g/ha
# Summary of the method: as §2
# [7] = test system: oval-leafed pondweed; experiment: Test Example 2: weedkilling efficacy, growth period weed treatment in the submerged state; C: oval-leafed pondweed; settings: treatment dosage 320 g/ha
# Summary of the method: as §2
# [8] = test system: crabgrass; experiment: Test Example 3: weedkilling efficacy through soil treatment; D: crabgrass; settings: soil treatment, treatment dosage 320 g/ha
# Summary of the method: (§3)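 Crop and weed responses were judged three weeks after a uniform surface spray of the water-diluted emulsion at the given g/ha rate. Seeds sat beneath about 1.5 cm of sterilized diluvial soil, and boxes stood in a greenhouse at 25 to 30° C.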
# [9] = test system: green foxtail; experiment: Test Example 3: weedkilling efficacy through soil treatment; E: green foxtail; settings: soil treatment, treatment dosage 320 g/ha
# Summary of the method: as §3
# [10] = test system: barnyard grass; experiment: Test Example 3: weedkilling efficacy through soil treatment; F: barnyard grass; settings: soil treatment, treatment dosage 320 g/ha
# Summary of the method: as §3
# [11] = test system: wild oat; experiment: Test Example 3: weedkilling efficacy through soil treatment; G: wild oat; settings: soil treatment, treatment dosage 320 g/ha
# Summary of the method: as §3
# [12] = test system: black-grass; experiment: Test Example 3: weedkilling efficacy through soil treatment; H: black-grass; settings: soil treatment, treatment dosage 320 g/ha
# Summary of the method: as §3
# [13] = test system: Italian ryegrass; experiment: Test Example 3: weedkilling efficacy through soil treatment; I: Italian ryegrass; settings: soil treatment, treatment dosage 320 g/ha
# Summary of the method: as §3
# [14] = test system: common wind-grass; experiment: Test Example 3: weedkilling efficacy through soil treatment; J: common wind-grass; settings: soil treatment, treatment dosage 320 g/ha
# Summary of the method: as §3
# [15] = test system: Indian mallow; experiment: Test Example 3: weedkilling efficacy through soil treatment; K: Indian mallow; settings: soil treatment, treatment dosage 320 g/ha
# Summary of the method: as §3
# [16] = test system: redroot pigweed; experiment: Test Example 3: weedkilling efficacy through soil treatment; L: redroot pigweed; settings: soil treatment, treatment dosage 320 g/ha
# Summary of the method: as §3
# [17] = test system: fig-leafed goosefoot; experiment: Test Example 3: weedkilling efficacy through soil treatment; M: fig-leafed goosefoot; settings: soil treatment, treatment dosage 320 g/ha
# Summary of the method: as §3
# [18] = test system: chickweed; experiment: Test Example 3: weedkilling efficacy through soil treatment; N: chickweed; settings: soil treatment, treatment dosage 320 g/ha
# Summary of the method: as §3
# [19] = test system: catchweed; experiment: Test Example 3: weedkilling efficacy through soil treatment; O: catchweed; settings: soil treatment, treatment dosage 320 g/ha
# Summary of the method: as §3
# [20] = test system: birds-eye speedwell; experiment: Test Example 3: weedkilling efficacy through soil treatment; p: birds-eye speedwell; settings: soil treatment, treatment dosage 320 g/ha
# Summary of the method: as §3
# [21] = test system: directly sown rice; experiment: Test Example 3: soil treatment, effect on crop; b: directly sown rice; settings: soil treatment, treatment dosage 320 g/ha
# Summary of the method: as §3
# [22] = test system: corn; experiment: Test Example 3: soil treatment, effect on crop; c: corn; settings: soil treatment, treatment dosage 320 g/ha
# Summary of the method: as §3
# [23] = test system: soybean; experiment: Test Example 3: soil treatment, effect on crop; d: soybean; settings: soil treatment, treatment dosage 320 g/ha
# Summary of the method: as §3
# [24] = test system: wheat; experiment: Test Example 3: soil treatment, effect on crop; e: wheat; settings: soil treatment, treatment dosage 320 g/ha
# Summary of the method: as §3
# [25] = test system: beet; experiment: Test Example 3: soil treatment, effect on crop; f: beet; settings: soil treatment, treatment dosage 320 g/ha
# Summary of the method: as §3
# [26] = test system: rapeseed; experiment: Test Example 3: soil treatment, effect on crop; g: rapeseed; settings: soil treatment, treatment dosage 320 g/ha
# Summary of the method: as §3
structure (smiles),measurement,setting,value
CC(C)(C(=O)Nc1ccn(C(F)F)n1)N1COCN(c2ccccc2)C1=O [A-1-04],"A: barnyard grass, weed kill grade",[1],"5 (weed kill ratio 90% or more, (practically complete withering))"
same,"B: bulrush, weed kill grade",[2],"5 (weed kill ratio 90% or more, (practically complete withering))"
same,"C: oval-leafed pondweed, weed kill grade",[3],"4 (weed kill ratio 70% or more, less than 90%)"
same,"a: transplanted rice, effect on crop grade",[4],0 (weed kill ratio 5% or less (practically no effect))
same,A (barnyard grass) weedkilling efficacy grade,[5],"3 (weed kill ratio 40% or more, less than 70%)"
same,B (bulrush) weedkilling efficacy grade,[6],"4 (weed kill ratio 70% or more, less than 90%)"
same,C (oval-leafed pondweed) weedkilling efficacy grade,[7],"4 (weed kill ratio 70% or more, less than 90%)"
same,"D: crabgrass, weedkilling efficacy grade",[8],"3 (weed kill ratio 40% or more, less than 70%)"
same,"E: green foxtail, weedkilling efficacy grade",[9],"3 (weed kill ratio 40% or more, less than 70%)"
same,"F: barnyard grass, weedkilling efficacy grade",[10],"2 (weed kill ratio 20% or more, less than 40%)"
same,"G: wild oat, weedkilling efficacy grade",[11],"2 (weed kill ratio 20% or more, less than 40%)"
same,"H: black-grass, weedkilling efficacy grade",[12],"4 (weed kill ratio 70% or more, less than 90%)"
same,"I: Italian ryegrass, weedkilling efficacy grade",[13],"5 (weed kill ratio 90% or more, (practically complete withering))"
same,"J: common wind-grass, weedkilling efficacy grade",[14],"5 (weed kill ratio 90% or more, (practically complete withering))"
same,"K: Indian mallow, weedkilling efficacy grade",[15],0 (weed kill ratio 5% or less (practically no effect))
same,"L: redroot pigweed, weedkilling efficacy grade",[16],0 (weed kill ratio 5% or less (practically no effect))
same,"M: fig-leafed goosefoot, weedkilling efficacy grade",[17],"3 (weed kill ratio 40% or more, less than 70%)"
same,"N: chickweed, weedkilling efficacy grade",[18],"4 (weed kill ratio 70% or more, less than 90%)"
same,"O: catchweed, weedkilling efficacy grade",[19],"2 (weed kill ratio 20% or more, less than 40%)"
same,"P: birds-eye speedwell, weedkilling efficacy grade",[20],"3 (weed kill ratio 40% or more, less than 70%)"
same,"b: directly sown rice, effect on crop grade",[21],0 (weed kill ratio 5% or less (practically no effect))
same,"c: corn, effect on crop grade",[22],0 (weed kill ratio 5% or less (practically no effect))
same,"d: soybean, effect on crop grade",[23],"2 (weed kill ratio 20% or more, less than 40%)"
same,"e: wheat, effect on crop grade",[24],0 (weed kill ratio 5% or less (practically no effect))
same,"f: beet, effect on crop grade",[25],"3 (weed kill ratio 40% or more, less than 70%)"
same,"g: rapeseed, effect on crop grade",[26],"4 (weed kill ratio 70% or more, less than 90%)"
